Data on 2 compounds can be found in publication PMC12728570, “Sphingomyelin synthase inhibitors from edible mushrooms prevent overweight and improve vitamin D homeostasis in a mouse model of diet-induced obesity” (Frontiers in Nutrition, 2025).

The subject of test [1] is T1, SMS2 (sphingomyelin synthase 2).
T1 construct: gene SGMS2; stably expressed in SMS1/SMS2-deficient mouse embryonic fibroblasts (ZS2), cell lysate
The test can be described thus: HPLC-fluorescence enzyme assay, ZS2 cell lysate. To be noted: Path 2: 5 μM C6-NBD-ceramide to NBD-SM; 5 μM C6-NBD-PC present; 37 °C, 30 min preincubation. The test is classed as biochemical. An excerpt: HPLC-fluorescence enzyme assay, ZS2 cell lysate on SMS2 (sphingomyelin synthase 2)

The subject of test [2] is T2, SMS1 (sphingomyelin synthase 1).
T2 construct: gene SGMS1; stably expressed in SMS1/SMS2-deficient mouse embryonic fibroblasts (ZS2), cell lysate
The test can be described thus: HPLC-fluorescence enzyme assay, ZS2 cell lysate. In kind it is biochemical. To be noted: 37 °C, 30 min preincubation. An excerpt:
HPLC-fluorescence enzyme assay, ZS2 cell lysate on SMS1 (sphingomyelin synthase 1)

The structures appear in SMILES notation. Where two headings read alike, the source gives them in different places.

Regarding `CC(C)=CCC/C(C)=C/CC/C(C)=C/Cc1c(O)cc(C)c(C(=O)O)c1O` [grifolic acid], the IC50 in test [1] stood at 2.5 µM; in test [2] (read-out: IC50 (μM) / SMS1 / Path 1), 3 µM.
As for `CC(C)=CCC/C(C)=C/CC/C(C)=C/Cc1c(O)cc(C)cc1O` [grifolin], the IC50 is 3 µM in test [1] and 0.6 µM in test [2] (Path 2: 5 μM C6-NBD-ceramide to NBD-SM, 5 μM C6-NBD-PC present).
